Test results from PMC7913412, “Identification and characterization of heteroclitic peptides in TCR-binding positions with improved HLA-binding efficacy” (Journal of Translational Medicine, 2021).

Target: H2-Db molecule (Mus musculus, UniProt P01899)
Assay: Peptide binding affinity assay on TAP-deficient RMA-S cells (anti-H-2Db staining, flow cytometry)
Format: cell-based
Details: 3 x 10^5 cells/well, peptide 1, 5, 10 μM, 4 h at 37 °C, anti-H-2Db antibody, flow cytometry MFI, triplicate
Experimental: Peptide binding affinity to H2-Db molecule was performed for each selected peptide. Tap-deficient mouse derived H-2Db RMA-S cells were cultured for 24 h at 26 °C to accumulate empty MHC-I molecules on the cell surface. Cells were washed in serum-free medium and incubated at 3 × 10^5 cells/well with varying concentrations of peptides (1 μM, 5 μM, 10 μM) for 4 h at 37 °C with 5% CO2. Cells were harvested, washed with phosphate-buffered saline (1 × PBS; Gibco Life Technologies), stained with anti-H-2Db fluorescent monoclonal antibody (cat. 1157535; SONY) and analyzed by flow cytometry. All the experiments were performed in triplicate.
In order to experimentally confirm the binding of heteroclitic peptides to H-2 Db molecule, the H-2 Db positive RMA-S cell line was loaded with different concentrations (1 μM, 5 μM, 10 μM) of selected heteroclitic peptides modified in p4 with a predicted affinity higher than the wt peptide.

H2-Db molecule, sequence (P01899 whole entry, looked up): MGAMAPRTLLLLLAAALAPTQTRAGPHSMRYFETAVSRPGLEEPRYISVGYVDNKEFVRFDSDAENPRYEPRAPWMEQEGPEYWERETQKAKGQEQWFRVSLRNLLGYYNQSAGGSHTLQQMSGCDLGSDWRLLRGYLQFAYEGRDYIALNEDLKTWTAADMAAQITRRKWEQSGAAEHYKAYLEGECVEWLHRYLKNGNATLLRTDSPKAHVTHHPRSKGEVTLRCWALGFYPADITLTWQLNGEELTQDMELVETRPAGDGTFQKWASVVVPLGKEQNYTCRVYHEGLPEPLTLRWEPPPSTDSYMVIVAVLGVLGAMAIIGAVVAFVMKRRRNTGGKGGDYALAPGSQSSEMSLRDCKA

Sequence | Binding to H-2Db compared with the wt peptide (in words)
RAHWNIVTF [RAHWNIVTF (MUT418), heteroclitic HPV-E7 peptide, Trp at p4] | strongest binding
SVYCFFVWL [SVYCFFVWL (MUT41), heteroclitic Trp2 peptide, Cys at p4] | binding lower than the wt
SVYEFFVWL [SVYEFFVWL (MUT42), heteroclitic Trp2 peptide, Glu at p4] | binding lower than the wt
SVYWFFVWL [SVYWFFVWL (MUT417), heteroclitic Trp2 peptide, Trp at p4] | binding lower than the wt
